Measured values from patent publication US20150031572A1, “MEANS AND METHODS FOR ASSESSING NEURONAL TOXICITY” (priority 2012, published 2015).
Where a name gives a salt, the structure may show the parent alone. Marks after values point to notes of the source that are not given here.

Assay: Plasma metabolite profiling (GC-MS, LC-MS, SPE-LC-MS) of rats dosed once daily over 28 days; treatment ratios versus untreated control
Format: in vivo, rat
Protocol: A group of each 5 male and female rats was dosed once daily with the indicated compounds (see Table 10, below for compounds, applied doses and administration details) over 28 days.
Each dose group in the studies consisted of five rats per sex. Additional groups of each 5 male and female animals served as controls. Before starting the treatment period, animals, which were 62-64 days old when supplied, were acclimatized to the housing and environmental conditions for 7 days. All animals of the animal population were kept under the same constant temperature (20-24±3° C.) and the same constant humidity (30-70%). The animals of the animal population were fed ad libitum. The food to be used was essentially free of chemical or microbial contaminants. Drinking water was also offered ad libitum. Accordingly, the water was free of chemical and microbial contaminants as laid down in the European Drinking Water Directive 98/83/EG. The illumination period was 12 hours light followed by 12 hours darkness (12 hours light, from 6:00 to 18:00, and 12 hours darkness, from 18:00 to 6:00). […] The test substances (compounds) in the Tables 1 to 9 below were dosed and administered as described in the Table 10 above.
In the morning of day 7, 14, and 28, blood was taken from the retro-orbital venous plexus from fasted anaesthetized animals. From each animal, 1 ml of blood was collected with EDTA as anticoagulant. The samples were centrifuged for generation of plasma. All plasma samples were covered with a N2 atmosphere and then stored at −80° C. until analysis.
For mass spectrometry-based metabolite profiling analyses plasma samples were extracted and a polar and a non-polar (lipid) fraction was obtained. For GC-MS analysis, the non-polar fraction was treated with methanol under acidic conditions to yield the fatty acid methyl esters. Both fractions were further derivatised with O-methyl-hydroxyamine hydrochloride and pyridine to convert Oxogroups to O-methyloximes and subsequently with a silylating agent before analysis. In LC-MS analysis, both fractions were reconstituted in appropriate solvent mixtures. HPLC was performed by gradient elution on reversed phase separation columns. Mass spectrometric detection which allows target and high sensitivity MRM (Multiple Reaction Monitoring) profiling in parallel to a full screen analysis was applied as described in WO2003073464.
Steroids and their metabolites were measured by online SPE-LC-MS (Solid phase extraction-LC-MS).
Following comprehensive analytical validation steps, the data for each analyte were normalized against data from pool samples. These samples were run in parallel through the whole process to account for process variability. The significance of treatment group values specific for sex, treatment duration and metabolite was determined by comparing means of the treated groups to the means of the respective untreated control groups using WELCH-test and quantified with treatment ratios versus control and p-values.
The identification of the most important biomarkers per toxicity pattern was done by a ranking of the analytes in the tables below. Therefore the metabolic changes in reference treatments of a given pattern (shown in the table) were compared with changes of the same metabolite in other unrelated treatments. […] The maximum absolute value of the respective TVALUE was taken to indicate the most important metabolite for the pattern.

[1] = plasma, female rats, day 7, high dose, Table 4a
[2] = plasma, female rats, day 7, high dose, Table 4b
[3] = plasma, female rats, day 7, high dose, Table 6c
[4] = plasma, female rats, day 7, high dose, Table 6d
[5] = plasma, female rats, day 14, high dose, Table 4a
[6] = plasma, female rats, day 14, high dose, Table 4b
[7] = plasma, female rats, day 14, high dose, Table 6c
[8] = plasma, female rats, day 14, high dose, Table 6d
[9] = plasma, female rats, day 28, high dose, Table 4a
[10] = plasma, female rats, day 28, high dose, Table 4b
[11] = plasma, female rats, day 28, high dose, Table 6c
[12] = plasma, female rats, day 28, high dose, Table 6d
[13] = plasma, male rats, day 7, high dose, Table 3a
[14] = plasma, male rats, day 7, high dose, Table 3b
[15] = plasma, male rats, day 14, high dose, Table 3a
[16] = plasma, male rats, day 14, high dose, Table 3b
[17] = plasma, male rats, day 28, high dose, Table 3a
[18] = plasma, male rats, day 28, high dose, Table 3b

O=C1Cc2cc(CCN3CCN(c4nsc5ccccc45)CC3)c(Cl)cc2N1 [Ziprasidone hydrochloride]
Ceramide (d18:1,C24:1), ratio versus control [1]: 1.23
Docosapentaenoic acid (C22:cis[7,10,13,16,19]5), ratio versus control [1]: 2.26*
Elaidic acid (C18:trans[9]1), ratio versus control [1]: 1.52*
Galactose, lipid fraction, ratio versus control [1]: 1.46*
Myristic acid (C14:0), ratio versus control [1]: 1.53*
Phosphatidylcholine (C16:0,C16:0), ratio versus control [1]: 1.4*
Progesterone, ratio versus control [1]: 9.81*
TAG No 07, ratio versus control [1]: 3.4*
Creatinine, ratio versus control [2]: 0.87
Glutamate, ratio versus control [2]: 0.67*
Glycine, ratio versus control [2]: 0.86*
Lactate, ratio versus control [2]: 0.6*
Myristic acid (C14:0), ratio versus control [2]: 1.53
Normetanephrine, ratio versus control [2]: 0.73*
Phosphocreatine, ratio versus control [2]: 0.61*
Serotonin (5-HT), ratio versus control [2]: 0.11*
Uric acid, ratio versus control [2]: 0.51*
4-Hydroxysphinganine (t18:0, Phytosphingosine), total, ratio versus control [3]: 1.49*
Docosahexaenoic acid (C22:cis[4,7,10,13,16,19]6), ratio versus control [3]: 1.7*
Docosapentaenoic acid (C22:cis[7,10,13,16,19]5), ratio versus control [3]: 2.26*
Galactose, lipid fraction, ratio versus control [3]: 1.46*
Palmitic acid (C16:0), ratio versus control [3]: 1.56*
Phosphatidylcholine (C16:0,C16:0), ratio versus control [3]: 1.4*
Phosphatidylcholine (C16:0,C22:6), ratio versus control [3]: 1.02
Phosphatidylcholine No 02, ratio versus control [3]: 1.17*
TAG (C16:0,C16:1), ratio versus control [3]: 4.38*
TAG (C16:0,C18:1,C18:3), ratio versus control [3]: 2.8*
TAG (C16:0,C18:2), ratio versus control [3]: 2.47*
TAG (C18:2,C18:2), ratio versus control [3]: 2.44*
TAG (C18:2,C18:3), ratio versus control [3]: 3.48*
TAG (C18:3,C18:2,C18:1), ratio versus control [3]: 3.89*
TAG No 059, ratio versus control [3]: 3.12*
4-Hydroxyphenylpyruvate, ratio versus control [4]: 0.42*
Glycine, ratio versus control [4]: 0.86*
Lactate, ratio versus control [4]: 0.6*
Lysophosphatidylcholine (C16:0), ratio versus control [4]: 0.99*
Uric acid, ratio versus control [4]: 0.51*
Ceramide (d18:1,C24:1), ratio versus control [5]: 1.47*
Docosapentaenoic acid (C22:cis[7,10,13,16,19]5), ratio versus control [5]: 1.55*
Elaidic acid (C18:trans[9]1), ratio versus control [5]: 0.97
Galactose, lipid fraction, ratio versus control [5]: 1.17*
Myristic acid (C14:0), ratio versus control [5]: 1.09
Phosphatidylcholine (C16:1,C18:2), ratio versus control [5]: 1.06
Progesterone, ratio versus control [5]: 1.28
TAG No 07, ratio versus control [5]: 0.62
myo-Inositol, lipid fraction, ratio versus control [5]: 1.26*
Creatinine, ratio versus control [6]: 1.02
Glutamate, ratio versus control [6]: 0.71*
Glycine, ratio versus control [6]: 0.86*
Lactate, ratio versus control [6]: 0.66
Myristic acid (C14:0), ratio versus control [6]: 1.09
Normetanephrine, ratio versus control [6]: 0.88
Serotonin (5-HT), ratio versus control [6]: 0.59
Uric acid, ratio versus control [6]: 0.5*
4-Hydroxysphinganine (t18:0, Phytosphingosine), total, ratio versus control [7]: 1.43*
Docosahexaenoic acid (C22:cis[4,7,10,13,16,19]6), ratio versus control [7]: 1.43*
Docosapentaenoic acid (C22:cis[7,10,13,16,19]5), ratio versus control [7]: 1.55*
Galactose, lipid fraction, ratio versus control [7]: 1.17*
Phosphatidylcholine (C16:0,C20:5), ratio versus control [7]: 0.99
Phosphatidylcholine (C16:0,C22:6), ratio versus control [7]: 1.22*
Phosphatidylcholine (C16:1,C18:2), ratio versus control [7]: 1.06
Phosphatidylcholine No 02, ratio versus control [7]: 1.19*
TAG (C16:0,C16:1), ratio versus control [7]: 0.81
TAG (C16:0,C18:1,C18:3), ratio versus control [7]: 0.76
TAG (C16:0,C18:2), ratio versus control [7]: 0.91
TAG (C18:2,C18:2), ratio versus control [7]: 0.81
TAG (C18:2,C18:3), ratio versus control [7]: 0.76
TAG (C18:3,C18:2,C18:1), ratio versus control [7]: 0.91
TAG No 059, ratio versus control [7]: 0.84
4-Hydroxyphenylpyruvate, ratio versus control [8]: 0.21*
Glycine, ratio versus control [8]: 0.86*
Lactate, ratio versus control [8]: 0.66
Lysophosphatidylcholine (C16:0), ratio versus control [8]: 1
Uric acid, ratio versus control [8]: 0.5*
Ceramide (d18:1,C24:1), ratio versus control [9]: 1.2
Docosapentaenoic acid (C22:cis[7,10,13,16,19]5), ratio versus control [9]: 1.54*
Elaidic acid (C18:trans[9]1), ratio versus control [9]: 1.18
Galactose, lipid fraction, ratio versus control [9]: 1.22
Myristic acid (C14:0), ratio versus control [9]: 1.18
Phosphatidylcholine (C16:1,C18:2), ratio versus control [9]: 1.5*
Progesterone, ratio versus control [9]: 2.41*
TAG No 07, ratio versus control [9]: 1.02
myo-Inositol, lipid fraction, ratio versus control [9]: 1.2
Creatinine, ratio versus control [10]: 0.89*
Glutamate, ratio versus control [10]: 0.76*
Glycine, ratio versus control [10]: 0.91
Lactate, ratio versus control [10]: 0.62*
Myristic acid (C14:0), ratio versus control [10]: 1.18
Normetanephrine, ratio versus control [10]: 0.95
Phosphocreatine, ratio versus control [10]: 0.47
Serotonin (5-HT), ratio versus control [10]: 1.37
Uric acid, ratio versus control [10]: 0.73*
Docosahexaenoic acid (C22:cis[4,7,10,13,16,19]6), ratio versus control [11]: 1.26
Docosapentaenoic acid (C22:cis[7,10,13,16,19]5), ratio versus control [11]: 1.54*
Galactose, lipid fraction, ratio versus control [11]: 1.22
Palmitic acid (C16:0), ratio versus control [11]: 1.2*
Phosphatidylcholine (C16:0,C20:5), ratio versus control [11]: 1.17*
Phosphatidylcholine (C16:1,C18:2), ratio versus control [11]: 1.5*
Phosphatidylcholine No 02, ratio versus control [11]: 1.2*
TAG (C16:0,C16:1), ratio versus control [11]: 1.75*
TAG (C16:0,C18:1,C18:3), ratio versus control [11]: 1.3*
TAG (C16:0,C18:2), ratio versus control [11]: 1.38*
TAG (C18:2,C18:3), ratio versus control [11]: 1.46*
TAG (C18:3,C18:2,C18:1), ratio versus control [11]: 1.44*
TAG No 059, ratio versus control [11]: 1.58*
4-Hydroxyphenylpyruvate, ratio versus control [12]: 1.02
Glycine, ratio versus control [12]: 0.91
Lactate, ratio versus control [12]: 0.62*
Lysophosphatidylcholine (C16:0), ratio versus control [12]: 0.98*
Uric acid, ratio versus control [12]: 0.73*
3-Methoxytyrosine, ratio versus control [13]: 1.12
Arginine, ratio versus control [13]: 1.22*
Tryptophan, ratio versus control [13]: 1.1
Glycine, ratio versus control [14]: 0.82*
Threonic acid, ratio versus control [14]: 0.66*
Arginine, ratio versus control [15]: 1.11*
myo-Inositol-2-phosphate, lipid fraction, ratio versus control [15]: 1.44*
Glycine, ratio versus control [16]: 0.95
Threonic acid, ratio versus control [16]: 0.52*
3-Methoxytyrosine, ratio versus control [17]: 1.47*
Arginine, ratio versus control [17]: 0.98
Tryptophan, ratio versus control [17]: 1.18*
myo-Inositol-2-phosphate, lipid fraction, ratio versus control [17]: 1.63*
Glycine, ratio versus control [18]: 0.86*
Threonic acid, ratio versus control [18]: 0.63*
3-Methoxytyrosine, ratio versus control (rat, in vivo): 1.33*
4-Hydroxysphinganine (t18:0, Phytosphingosine), total, ratio versus control (rat, in vivo): 1.16*
Palmitic acid (C16:0), ratio versus control (rat, in vivo): 1.12*
Phosphatidylcholine (C16:0,C16:0), ratio versus control (rat, in vivo): 1.32*
Phosphatidylcholine (C16:0,C20:5), ratio versus control (rat, in vivo): 1.05*
Phosphatidylcholine (C16:0,C22:6), ratio versus control (rat, in vivo): 1.15*
Phosphatidylcholine (C16:1,C18:2), ratio versus control (rat, in vivo): 1.41*
TAG (C18:2,C18:2), ratio versus control (rat, in vivo): 1.41*
Tryptophan, ratio versus control (rat, in vivo): 1.16*
myo-Inositol, lipid fraction, ratio versus control (rat, in vivo): 1.41*
myo-Inositol-2-phosphate, lipid fraction, ratio versus control (rat, in vivo): 1.41*

CCCC(C)C1(CC)C(=O)NC(=O)NC1=O (stereo not shown) [Pentobarbital sodium i.p., Pentobarbital sodium]
3-Indoxylsulfate, ratio versus control (rat, in vivo): 1.44 *
Cysteine, ratio versus control (rat, in vivo): 0.64 *
Ketoleucine, ratio versus control (rat, in vivo): 1.09
Malate, ratio versus control (rat, in vivo): 0.83 *
Pantothenic acid, ratio versus control (rat, in vivo): 1.14^
Phosphate (inorganic and organic phosphates), ratio versus control (rat, in vivo): 1.21 *
Phosphatidylcholine (C16:0, C20:4), ratio versus control (rat, in vivo): 1 *
Phosphatidylcholine (C16:0, C22_6), ratio versus control (rat, in vivo): 0.94 *
alpha-Tocopherol, ratio versus control (rat, in vivo): 1.23 *
